This is an account of results in patent US20240057595A1, “INSECT REPELLENT COMPOSITIONS” (Manus Bio Inc., priority 2020, published 2024).

This test has as its system Aedes aegypti UGAL mosquito strain (adult female). Briefly: Mortality assay on treated filter paper. Format: in vivo. As to conditions: 0.5% solution; within the first 20 minutes; FIG. 4. The method, then: A mortality assay was employed to evaluate mosquito mortality in response to exposure to eleven different treatments including water, a series of NKT dilutions, and 0.5% permethrin. The Aedes aegypti UGAL mosquito strain (adult female) was used in this example.
The experiments were conducted in a well-lit, temperature- and humidity-controlled room. The room was 22-24° C. with humidity at 40-45%. To conduct these experiments, each treatment had four replicates under the same conditions. A filter paper, 10 cm in diameter, was treated with 340 μl of an experimental or control solution using a standardized spray bottle (113.3 μl/spray) that was held approximately 5 cm away from the paper. The treated filter paper was placed into an open petri dish with a diameter of 10 cm. […] Female mosquitoes were then anesthetized on ice for five minutes. After 60 minutes, 10 ice-anesthetized adult female mosquitoes were transferred onto the treated paper using soft featherweight forceps. The petri dish lid was placed on top, and the mosquitoes were given two minutes to revive before the timer was started. Mosquitoes were then monitored every five minutes. Mosquitoes on their back were considered knocked down and marked as deceased in these experiments. […] Log-rank (Mantel-Cox) test was performed for comparison of survival curves.

For `CC1(C)C(C=C(Cl)Cl)C1C(=O)OCc1cccc(Oc2ccccc2)c1` (stereo not shown) [permethrin], the knockdown effect entry is “strong immediate knockdown effect”.
